Data as given in patent publication US20240207380A1, “NOVEL PEPTIDE TARGETING DENDRITIC CELLS, AND COMPOSITION FOR TREATING CANCER COMPRISING SAME” (INDUSTRY FOUNDATION OF CHONNAM NATIONAL UNIVERSITY, priority 2021, published 2024).
Entries after “also recorded” stand apart in the source; their conditions may differ. Ends that are not written are not given here. * marks the point of attachment. Biotin = O=C1N[C@H]2[C@H](CS[C@H]2CCCCC(=O)*)N1

What was measured:
[1] = tested on: CD11c^+ cells from cervical lymph nodes; assay: In vivo dendritic cell targeting after intranasal administration; parameters: species or system BALB/c mice; conditions: 6.5 hours post-inoculation, compared to scrambled-peptide negative control
Method: The peptide at appropriate concentrations in a total volume of 10 μl/nostril was given intranasally to BALB/c mice. A scrambled peptide previously shown to be nonspecific to DCs was used as a negative control. At 6.5 hours post-inoculation, mice were sacrificed, and their cLNs were harvested. Single-cell suspensions were prepared by gently tearing the LN capsule. After gentle washing in 1×PBS, cells were stained with anti-mouse CD11c^+ APC-conjugated Ab (eBioscience, Clone: N418, 170114-82) and streptavidin-AF488, and FACS analysis was performed.

[2] = tested on: cervical lymph node cells, splenic dendritic cells, and bone marrow-derived dendritic cell; assay: Cellular uptake of DC-targeting peptides in lymph node cells, splenic DCs and BMDCs (FACS); assay type: cell-based, mice; conditions: biotinylated peptides, 2 hours, FACS gated on CD11c+
Method: (§1) Bone marrow (BM) cells were isolated by flushing femurs and tibias of C57BL/6 mice, and red blood cells (RBCs) were depleted by ACK lysis (Gibco, A10492-01). The cells were centrifuged and strained through a 70 μm filter before being resuspended in RPMI 1640 supplemented with 10% heat-inactivated FBS, 100 units/ml penicillin, and 100 μg/ml streptomycin. The cells were resuspended in complete RPMI 1640 culture medium containing GM-CSF (10 ng/ml; R&D Systems, 415-ML-010) and IL4 (10 ng/ml; R&D Systems, 415-ML-010), inoculated into a cell culture dish, and cultured at 37° C. and 5% CO2. The culture medium was refreshed every two days. On day 7 or 8, DCs loosely bound to the bottom were collected by gentle pipetting. Splenic DCs were prepared by CD11c+ MicroBeads MACS (Miltenyi Biotec, 130-052-001) following the manufacturer's instructions.
(§2) Peptides were synthesized using […] chemistry, purified using high-pressure liquid chromatography to more than 95% purity, and biotinylated in the side chain (AnyGen Inc., South Korea). Peptides were dissolved in appropriate solvents according to the manufacturer's instructions to a concentration of 0.5 mg/ml. To test CD11c^+ cell targeting by the synthesized peptides, cLNs, splenic DCs, and BMDCs were treated with the 6 peptides for 2 hours in RPMI 1640 medium. After incubation with peptides, the cells were harvested, washed and stained with anti-mouse CD11c^+ APC-conjugated Ab (eBioscience, Clone: N418, 170114-82) and streptavidin-AF488. Cells were FACS analyzed by gating upon the CD11c^+ cell population, and the results are depicted in FIGS. 6 and 7.

[3] = tested on: CD11c^+-BMDC; assay: Cellular uptake of DC-targeting peptides by bone marrow-derived dendritic cells (FACS); assay type: cell-based, C57BL/6 mice; conditions: biotinylated peptides, 2 hours in RPMI 1640, FACS gated on CD11c+, compared with negative control
Method: as §1, §2

[4] = target: T1, TLR5 (Homo sapiens, UniProt O60602); assay type: cell-based; conditions: HEK-Blue hTLR5 cells
T1 construct: host or cells: HEK-Blue hTLR5 cells (HEK293-derived reporter line, own knowledge: stably transfected with the human TLR5 gene and an NF-kB-inducible SEAP reporter)
T1 sequence (O60602 21-858): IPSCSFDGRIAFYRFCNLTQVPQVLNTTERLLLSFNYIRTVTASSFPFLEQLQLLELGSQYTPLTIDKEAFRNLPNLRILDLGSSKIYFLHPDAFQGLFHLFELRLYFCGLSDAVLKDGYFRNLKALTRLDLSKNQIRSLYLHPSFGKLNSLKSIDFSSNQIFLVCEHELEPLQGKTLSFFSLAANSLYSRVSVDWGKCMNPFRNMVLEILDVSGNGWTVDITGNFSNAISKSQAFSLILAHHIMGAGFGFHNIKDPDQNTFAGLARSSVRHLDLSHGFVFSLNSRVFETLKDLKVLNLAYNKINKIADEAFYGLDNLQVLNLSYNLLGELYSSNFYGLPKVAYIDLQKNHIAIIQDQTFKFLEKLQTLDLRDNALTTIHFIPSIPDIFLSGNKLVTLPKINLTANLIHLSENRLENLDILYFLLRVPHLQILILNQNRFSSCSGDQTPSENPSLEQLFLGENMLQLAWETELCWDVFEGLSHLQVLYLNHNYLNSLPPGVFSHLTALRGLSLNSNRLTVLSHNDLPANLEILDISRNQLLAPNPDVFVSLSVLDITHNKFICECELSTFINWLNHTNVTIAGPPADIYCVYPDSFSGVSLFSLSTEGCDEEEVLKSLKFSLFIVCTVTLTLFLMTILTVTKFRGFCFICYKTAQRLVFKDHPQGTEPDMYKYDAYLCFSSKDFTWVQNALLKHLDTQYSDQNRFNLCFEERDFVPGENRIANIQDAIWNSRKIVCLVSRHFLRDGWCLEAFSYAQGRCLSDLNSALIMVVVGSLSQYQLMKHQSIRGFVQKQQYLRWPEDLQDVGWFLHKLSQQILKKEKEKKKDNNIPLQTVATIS
Method: Also, the EC50 was calculated using triplicate OD 620 nm values for each protein concentration over a wide range of protein concentrations (0.0375 nM-19.29 nM at the AAT Bioquest website).

[5] = tested on: Bone marrow-derived dendritic cells (BMDCs); assay: Antigen-presenting cell activation (CD80 and CD86 on BMDC surface); assay type: cell-based, C57BL/6 mice; conditions: 0.5 μg/ml, 24 hours
Text: The cells were stained on ice with fluorophore-labeled antibodies before flow cytometry analysis.

[6] = tested on: Bone marrow-derived dendritic cells (BMDCs); assay: Cellular uptake of EF and DEF in BMDCs (flow cytometry); assay type: cell-based, C57BL/6 mice; conditions: 2 hours, anti-FlaB staining, FACS gated on CD11c+
Method: Cells treated with PBS alone were used as a negative control. After incubation, the cells were washed twice with cold 1×PBS containing 3% FBS and then stained with anti-mouse CD11c^+ antibody (eBioscience, Clone: N418, 25-0114-82) for 1 hour at 4° C. and fixed with 4% paraformaldehyde (T&I, BPP-9004) for 10 minutes at room temperature. The cells were permeabilized using a permeabilization kit according to the manufacturer's instructions (Invitrogen, 00-8333-56) and stained with anti-FlaB antibodies, followed by FACS analysis by gating upon the CD11c^+ population. The results are depicted in FIG. 14.

[7] = tested on: TC-1 cells; assay: Efficacy of E7ΔNLS as tumor antigen in TC-1 tumor-bearing mice; assay type: in vivo, C57BL/6 mice; conditions: peritumoral injection three times at intervals of five days; 4 μg FlaB, 10 μg E7FL, 8 μg E7ΔNLS alone or combined
Method: Female SPF C57BL/6 mice 7 to 8 weeks old were purchased from ORIENT (Seongnam-si, Gyeonggi-do, Korea). TC-1 cells were cultured in RPMI 1640 medium supplemented with 10% heat-inactivated FIBS, 100 units/ml penicillin, and 100 μg/ml streptomycin at 37° C. under 5% CO2. Tumors were established in mice by subcutaneous injection of 5×10^4 TC-1 cells in 100 μl of PBS into the right mid-flank of each mouse. […] Tumor growth was monitored every three days. The tumor volume was calculated with formula V=(tumor length)×(tumor width)×(tumor height)/2.

With “DCpep6: RFFCLGPLGFTKVD, SEQ ID NO: 6; dendritic cell-targeting peptide discovered by in vivo biopanning (peptide 6, and DCpep6)” the “localization of peptide in cervical lymph node cells (FIG. 8)” value [1] was “clearly localized in the cytoplasm of CD11c^+ cells”, the “cellular uptake in cervical lymph node cells, splenic dendritic cells and BMDCs (FIG. 7)” value (“cellular uptake … (FIG. 7)” for short) [2] was “remarkably higher specific signals” and the “cellular uptake … (FIG. 7)” value ([2]; listed as DCpep 6) was “increased cellular uptake”. The “targeting ability / cellular uptake of the peptides by bone marrow-derived dendritic cells (FIG. 6)” value (“targeting ability / cellular uptake” below) [3] was “efficiently targeted; also recorded: remarkably higher efficiency”.

In the case of “DCpep 3: SPACLDLGLVPWKI, SEQ ID NO: 9; dendritic cell-targeting peptide, Arg replaced by Lys for biotinylation (SPACLDLGLVPWK(Biotin)I)”, the “cellular uptake … (FIG. 7)” value [2] is reported as “increased cellular uptake” and the “targeting ability / cellular uptake” value [3] is reported as “efficiently targeted”.

For “DCpep 4: VDLYPCYTFHSKVV, SEQ ID NO: 10; dendritic cell-targeting peptide, Arg replaced by Lys for biotinylation (VDLYPCYTFHSK(Biotin)VV; not fully specified)”, the “cellular uptake … (FIG. 7)” value [2] was “increased cellular uptake” and the “targeting ability / cellular uptake” value [3] was “efficiently targeted”.

B1: EF: recombinant fusion of four copies of E7ΔNLS and FlaB, SEQ ID NO: 24 (protein)
chain: MIDGPAGQAEPDRAHYNIVTFCCKCDSTLRLCVQSTHVDIRTLEDLLMGTLGIVCPICSQKPEFIDGPAGQAEPDRAHYNIVTFCCKCDSTLRLCVQSTHVDIRTLEDLLMGTLGIVCPICSQKPVDIDGPAGQAEPDRAHYNIVTFCCKCDSTLRLCVQSTHVDIRTLEDLLMGTLGIVCPICSQKPVDIDGPAGQAEPDRAHYNIVTFCCKCDSTLRLCVQSTHVDIRTLEDLLMGTLGIVCPICSQKPKLMAVNVNTNVAAMTAQRYLNNANSAQQTSMERLSSGFKINSAKDDAAGLQISNRLNVQSRGLDVAVRNANDGISIAQTAEGAMNETTNILQRMRDLSLQSANGSNSKSERVAIQEEVTALNDELNRIAETTSFGGNKLLNGTYGTKAMQIGADNGEAVMLSLKDMRSDNVMMGGVSYQAEEGKDKNWNVAAGDNDLTIALTDSFGNEQEIEINAKAGDDIEELATYINGQTDLVKASVGEGGKLQIFAGNNKVQGEIAFSGSLAGELGLGEGKNVTVDTIDVTTVQGAQESVAIVDAALKYVDSHRAELGAFQNRFNHAISNLDNINENVNASKSRIKDTDFAKETTQLTKTQILSQASSSILAQAKQAPNSALSLLGLEHHHHHH
modifications: 4xE7deltaNLS::FlaB (EF)
B1 was tested, and the “NF-κB activity levels (FIG. 13)” value [4] was “increased the activity in dose-dependent manners”, the “expression of CD80 and CD86 on BMDC surface (FIG. 20)” value [5] was “no statistical significance” and the “cellular uptake in bone marrow-derived dendritic cells (FIG. 14)” value [6] was “scarcely detected”.

B2: FlaB: flagellin B (FlaB) derived from Vibrio vulnificus, SEQ ID NO: 23 (protein)
chain: MAVNVNTNVAAMTAQRYLNNANSAQQTSMERLSSGFKINSAKDDAAGLQISNRLNVQSRGLDVAVRNANDGISIAQTAEGAMNETTNILQRMRDLSLQSANGSNSKSERVAIQEEVTALNDELNRIAETTSFGGNKLLNGTYGTKAMQIGADNGEAVMLSLKDMRSDNVMMGGVSYQAEEGKDKNWNVAAGDNDLTIALTDSFGNEQEIEINAKAGDDIEELATYINGQTDLVKASVGEGGKLQIFAGNNKVQGEIAFSGSLAGELGLGEGKNVTVDTIDVTTVQGAQESVAIVDAALKYVDSHRAELGAFQNRFNHAISNLDNINENVNASKSRIKDTDFAKETTQLTKTQILSQASSSILAQAKQAPNSALSLLG
modifications: FlaB (F)
With B2 the “tumor suppression (tumor volume, FIGS. 11 and 12)” value [7] was “did not manifest any suppressive effect”.
